Assay results reported in patent US11285158B2, “Uses of pyrimidopyrimidinones as SIK inhibitors” (The General Hospital Corporation, priority 2017, dated 2022).

Legend:
[1] = test system: B16 cells; assay: In vitro MITF induction in B16 cells; format: cell-based, mouse; details: for maximal fold induction / EC50: Mus musculus, Table 5; for maximal fold induction: B16 cells, read-out: Highest fold mitf induction in B16 cells; for EC50: readout not given, presumably mitf induction in B16 cells; for Highest fold Mitf induction: Table 6, cells not given, same values as Table 5 (B16 cells)
Description: qPCR. mRNA was extracted from cells using the RNeasy Mini Kit (Qiagen®). KAPA SYBR® FAST Universal One-Step qRT-PCR Kit (KAPA BIOSYSTEMS®) was used to prepare mRNA samples for qPCR and samples were analyzed using the 7500 Fast Real Time PCR System (Applied Biosystems®). The relative expression of each gene was calculated by 7500 Fast System Software program, which utilizes Ct normalized to mRNA levels of RPL11 to calculate relative expression. Results are reported relative to control cells.
Tables 2 to 5 below show the effects of exemplary […] compounds on skin darkening, including an in vitro test of MITF induction following the same protocol as described above in paragraph 333, wherein exemplary SIK inhibitor compounds were tested for their in vitro induction of MITF.
Table 5 below additionally provides characteristics of exemplary SIK inhibitor compounds, MITF induction in B16 cells, EC50, log P, and experimental conditions for skin darkening experiments in mice and humans.

[2] = test system: human breast skin explants; assay: Human skin explants: darkening/pigmentation after topical SIK inhibitor; format: cell-based; details: Human Skin Explants
Description: Image and Colorimeter analysis were conducted 24 hours after the last treatment.
Human pigmentation experiments. Full thickness human breast skin explants were cultured in petri dishes with a solid phase and liquid phase phenol red free DMEM medium with […], 5% fungizone (Gibco®), and 10% FBS. Passive application refers to simply applying the treatment to skin without further rubbing or manipulation. Mechanical application refers to application of agents to skin with further rubbing of treatment with 10 clockwise turns of a gloved cotton swab applicator. Skin was harvested, fixed, and processed for paraffin embedding. Sections were cut from paraffin blocks, and sections were stained utilizing hematoxylin and eosin (morphology) and Fontana-Masson (melanin).

[3] = Table 2, passive topical application

Row | EC50 [1] [µM] | Structure (SMILES) | maximal fold induction [1] | also measured
1 | 0.057 | COc1ccc(N2C(=O)N(c3c(C)cccc3C)Cc3cnc(Nc4cc(N5CCOCC5)cc(N5CCN(C)CC5)c4)nc32)c(OC)c1 [HG-11-143-01] | 6.8 | 
2 |  | Cc1cccc(C)c1NC(=O)N1C/C=C\COc2cccc(c2)Nc2cc1ncn2 [HG-10-32-01] | 2.4 | Highest fold Mitf induction [1]: 2.4 fold
3 | 0.009 | COc1ccc(N2C(=O)N(c3c(C)cccc3C)Cc3cnc(Nc4ccc(N5CCN(C)CC5)cc4)nc32)nc1 [YKL-04-136-06] | 26.9 | 
4 | 0.021 | COc1ccc(N2C(=O)N(c3c(C)cccc3C)Cc3cnc(Nc4ccc(N5CCOCC5)c(C(F)(F)F)c4)nc32)c(OC)c1 [YKL-04-104] | 8 | 
5 |  | CN1CCN(c2ccc(Nc3ncc4c(n3)N(C)C(=O)N(c3ccccc3)C4)cc2)CC1 [HG-11-137-01] | 4.82 | Results (skin darkening) ([2]; Table 3): Darkens; Highest fold Mitf induction [1]: 4.82 fold
6 | 1420 | COc1ccc(N2C(=O)N(c3c(C)cccc3C)Cc3cnc(Nc4cc(CN5CCOCC5)cc(C(F)(F)F)c4)nc32)c(OC)c1 [YKL-04-118] | 1.1 | 
7 | 0.074 | COc1ccc(N2C(=O)N(c3c(C)cccc3C)Cc3cnc(Nc4cccc(OCCN5CCOCC5)c4)nc32)c(OC)c1 [YKL-04-106] | 9 | 
8 | 0.133 | COc1ccc(N2C(=O)N(c3c(C)cccc3C)Cc3cnc(Nc4cc(CN5CCN(C)CC5)cc(C(F)(F)F)c4)nc32)c(OC)c1 [YKL-04-125] | 9.7 | 
9 | 0.127 | COc1cc(N2CCN(C(C)=O)CC2)ccc1N1C(=O)N(c2c(C)cccc2C)Cc2cnc(Nc3cnn(CCN(C)C)c3)nc21 [YKL-04-136-07] | 2.4 | 
10 | 0.014 | COc1ccc(N2C(=O)N(c3c(C)cccc3C)Cc3cnc(Nc4ccc(CCCN5CCOCC5)cc4)nc32)c(OC)c1 [YKL-04-108] | 13.9 | Results (skin darkening) ([2]; Table 3): Darkens
11 | 0.657 | COc1ccc(N2C(=O)N(c3c(C)cccc3C)Cc3cnc(Nc4cc(N5CCOCC5)cc(C(F)(F)F)c4)nc32)c(OC)c1 [YKL-04-113] | 11.2 | 
12 |  | Cc1cccc(C)c1N1Cc2cnc(Nc3ccc(N4CCN(C)CC4)cc3)nc2N(C)C1=O [YKL-06-29] |  | Results (skin darkening) [2, 3]: Darkens; Results (skin darkening) ([2]; Table 4): Darkens
13 |  | Cc1cccc(C)c1N1Cc2cnc3nc2N(C/C=C/COCc2cccc(c2)N3)C1=O [YKL-05-200-2] |  | Results (skin darkening) [2, 3]: Darkens; Results (skin darkening) ([2]; Table 4): Darkens
14 | 0.042 | COc1cc(N2CCN(C(C)=O)CC2)ccc1N1C(=O)N(c2c(C)cccc2C)Cc2cnc(Nc3ccc(N4CCN(C)CC4)cc3)nc21 [YKL-04-136-05] | 8.9 | 
15 | 0.015 | COc1ccc(N2C(=O)N(c3c(C)cccc3Cl)Cc3cnc(Nc4cnn(CCN(C)C)c4)nc32)c(OC)c1 [YKL-04-136-04] | 9.2 | 
16 |  | Cc1cccc(Cl)c1N1Cc2cnc3nc2N(C/C=C\CCOc2cccc(c2)N3)C1=O [YKL-05-201-1] |  | Results (skin darkening) [2, 3]: Darkens; Results (skin darkening) ([2]; Table 4): Darkens
17 |  | Cc1cccc(C)c1N1Cc2cnc3nc2N(C/C=C/COc2cc(ccc2N2CCN(C)CC2)N3)C1=O [YKL-05-204-2] |  | Results (skin darkening) [2, 3]: Darkens; Results (skin darkening) ([2]; Table 4): Darkens

Row | EC50 [1] [µM] | Structure (SMILES) | maximal fold induction [1] | also measured
18 | 0.025 | COc1ccc(N2C(=O)N(c3c(C)cccc3Cl)Cc3cnc(Nc4ccc(N5CCN(C)CC5)cc4)nc32)c(OC)c1 [YKL-04-136-03] | 6.2 | 
19 | 0.005 | COc1ccc(N2C(=O)N(c3c(C)cccc3C)Cc3cnc(Nc4cnn(C5CCOCC5)c4)nc32)c(OC)c1 [YKL-04-105] | 9.9 | 
20 | 0.001 | CCN1CCN(Cc2ccc(Nc3ncc4c(n3)N(c3ccc(OC)cc3OC)C(=O)N(c3c(C)cccc3C)C4)cc2C(F)(F)F)CC1 [YKL-04-103] | 10.2 | 
21 |  | COc1cc(N2CCN(C)CC2)ccc1Nc1ncc2c(n1)N(C)C(=O)N(c1ccccc1)C2 [HG-11-139-02] | 5.76 | Highest fold Mitf induction [1]: 5.76 fold
22 |  | Cc1cccc(C)c1N1Cc2cnc3nc2N(C/C=C\COc2cc(ccc2N2CCN(C)CC2)N3)C1=O [YKL-05-204-1] |  | Results (skin darkening) [2, 3]: Darkens; Results (skin darkening) ([2]; Table 4): Darkens
23 |  | Cc1cccc(C)c1N1Cc2cnc(Nc3ccc(N4CCN(C)CC4)cc3)nc2N(C(C)C)C1=O [YKL-06-058] |  | Results (skin darkening) [2, 3]: Darkens; Results (skin darkening) ([2]; Table 4): Darkens
24 | 0.015 | COc1ccc(N2C(=O)N(c3c(C)cccc3C)Cc3cnc(Nc4cc(C)c(OCCN5CCOCC5)c(C)c4)nc32)c(OC)c1 [YKL-04-107] | 3.6 | 
25 | 0.014 | COc1ccc(N2C(=O)N(c3c(C)cccc3C)Cc3cnc(Nc4cnn(CCN(C)C)c4)nc32)nc1 [YKL-04-136-08] | 4.1 | 
26 | 0.024 | COc1ccc(N2C(=O)N(c3c(C)cccc3C)Cc3cnc(Nc4ccc(N5CCOCC5)c(OC)c4)nc32)c(OC)c1 [YKL-04-115] | 10.1 | 
27 | 0.021 | COc1ccc(N2C(=O)N(c3c(C)cccc3C)Cc3cnc(Nc4cnn(CCN(C)C)c4)nc32)c(OC)c1 [YKL-04-136-02] | 16.1 | 
28 | 0.215 | COc1ccc(N2C(=O)N(c3c(C)cccc3C)Cc3cnc(Nc4cc(N5CCN(C)CC5)cc(C(F)(F)F)c4)nc32)c(OC)c1 [YKL-04-112] | 5.2 | 
29 | 0.053 | COc1ccc(N2C(=O)N(c3c(C)cccc3C)Cc3cnc(Nc4ccc(CN5CCN(C)CC5)cc4)nc32)c(OC)c1 [YKL-04-136-01] | 9.7 | 
30 |  | COc1ccc(N2C(=O)N(c3c(C)cccc3C)Cc3cnc(Nc4ccc(CN5CCN(C)CC5)cc4)nc32)nc1 [YKL-04-136-10] | 16.3 | Highest fold Mitf induction [1]: 16.28 fold
31 | 0.067 | COc1ccc(N2C(=O)N(c3c(C)cccc3C)Cc3cnc(Nc4ccc(N5CCN(C)CC5)c(OC)c4)nc32)c(OC)c1 [YKL-04-114] | 10.4 | 
32 |  | Cc1cccc(C)c1N1Cc2cnc(Nc3ccc(N4CCN(C)CC4)cc3)nc2N(C2CCC2)C1=O [YKL-06-060] |  | Results (skin darkening) [2, 3]: Darkens; Results (skin darkening) ([2]; Table 4): Darkens
33 |  | COc1cc(N2CCN(C(C)=O)CC2)ccc1N1C(=O)N(c2c(C)cccc2C)Cc2cnc(Nc3ccc(CN4CCN(C)CC4)cc3)nc21 [YKL-04-136-11] | 9.58 | Highest fold Mitf induction [1]: 9.58 fold
